The values below come from PMC6776562, “Inhibition of Rac1-dependent forgetting alleviates memory deficits in animal models of Alzheimer’s disease” (Protein & Cell, 2019).

Each structure is given as a SMILES string. “Also recorded” adds a separate entry of the source.

A short description of data set [1]: In vitro metabolic stability in mouse liver microsomes. Format: in vitro ADME. As to the method:
Measurements of metabolic stability can be performed with liver microsomes, which are known to contain the major drug-metabolizing enzymes and UDP-glucuronosyltransferase (Baranczewski et al., [2006]). The in vitro metabolic stability levels of CS7171 and JKF-034 were measured using human, monkey, and mouse liver microsomes. The metabolic half-time (T1/2) and intrinsic clearance (Clint) were assayed using LC-MS analysis. Ketanserin is a potent, orally effective antagonist of endogenous serotonin. Its pharmacological profile is well studied (Brogden and Sorkin, [1990]). In this study, we used ketanserin as a control. If the T1/2 of the tested compound was 30–120 min, the compound was considered to show moderate metabolism in liver microsomes. If the T1/2 value was less than 30 min, the compound was considered to be susceptible to metabolism in liver microsomes.
(Liver microsomes are vesicles of endoplasmic reticulum, rich in cytochrome P450 enzymes.)

A further data set has as its system APP/PS1 mice. In words: Morris water maze (MWM) spatial learning in AD mice. Type of data set: in vivo, mouse. The following applies: APP/PS1 mice (eight-month-old); oral CS7171 50 mg/kg, CS7170 50 mg/kg, JKF-034 40 mg/kg once per day. The protocol:
Mice were treated with EHop-016 (10 mg/kg), CS7170 (50 mg/kg), CS7171 (50 mg/kg), and JKF-034 (40 mg/kg). These drugs were dissolved in saline (0.9% NaCl) containing 0.5% Tween-80 (Sigma P4780). Each mouse received 200 μL of the solution by intragastric administration once per day (administered at 9:00 am). The drug administration was started seven days before the beginning of the Morris water maze (MWM) task and was continued until the end of the assay. All control groups were fed with vehicle solution.
The MWM test, a classic paradigm used to study spatial reference memory, was performed (Vorhees and Williams, [2006]). Briefly, a circular polypropylene water tank (120 cm in diameter) was filled with opaque water and milk (20 °C ± 1 °C) and a transparent platform (15 cm diameter) was submerged (2 cm below the water surface) in the center of one of the four virtually divided quadrants. Distal cues were fixed on the wall of the tank as spatial references. For the classic training paradigm (Figs. 2 and 6), mice were allowed to find the platform within 60 s and to remain on it for at least 5 s. For the modified training paradigm (Fig. 3A), mice were trained over 5 consecutive sessions with a 1-h intervals within one day. After training, mice were returned to their home cages and the memory of the location of the platform was tested at 6 h after training (Fig. 3C–D). A mouse behavior tracking software (ANY-maze software) was used to record data automatically.

For a further data set, the system named is RhoA. In words: RhoA activity (RhoA-GTP) by Western blot after drug administration. The following applies: 7-month-old APP/PS1 mice; two weeks of P.O administration. Format: in vivo. As to the method:
The hippocampal tissues from human subjects and mice were harvested and stored in a liquid nitrogen tank for biochemical assay. The tissues were homogenized in cold lysis buffer (Merck-Millipore, 20-168). The insoluble debris were removed after centrifugation at 13,000 rpm (for 10 min, at 4 °C). For GTP-bound Rac/Cdc42, lysates were incubated with GST-tagged PAK (p21-activated kinase)-PBD agarose beads (Cytoskeleton, PAK02) overnight at 4 °C. On the second day, the beads were washed three times with lysis buffer before subjecting them to SDS-PAGE (15%) and transferring them onto nitrocellulose membranes (Millipore, HATF00010). The membranes were incubated with primary antibodies (for Rac1: BD Transduction Laboratories, #610650, 1:2,000 dilution; for Cdc42, Santa Cruz Biotechnology, lot No. sc-8401, 1:500 dilution) overnight at 4 °C and with HRP-conjugated goat anti-mouse IgG (Cell Signaling Technology, #7076) for 1 h at room temperature. Intensities of the detected bands were analyzed using ImageJ software (National Institutes of Health). The total amount of Rac1 in the lysate was detected using a routine Western blot procedure. RhoA-GTP levels were measured by using the Rho-GTP monoclonal antibody (New East, lot No. 26904, Dilution: 1:1,000). […] Data information: All values are expressed as mean r SEM.
A general note: A western blot detects proteins with antibodies after separation by electrophoresis.

Turning to `O=C1NN(c2ccc(Cl)c(Cl)c2)C(=O)C1=Cc1ccc(O)c(N(O)O)c1` [CS7171], in data set [1], the Clint came to 477.87 mL/min/kg and the T1/2 amounted to 11.42 min. The “MWM learning deficit / spatial memory” value in the data set with APP/PS1 mice is “mitigated learning deficits; also recorded: rescued; also recorded: effective”. The RhoA activity result in the data set with RhoA is given as “did not affect”.
Taken in the same sequence, the figures for `O=S(=O)(c1ccccc1)N1CCN(Cc2ccccc2)CC1` [JKF-034] were 4,702.82 mL/min/kg, 1.16 min, “effective; also recorded: rescued” and “did not affect”.
